Results published in ChEMBL document CHEMBL5038634, “Virtual Screening Directly Identifies New Fragment-Sized Inhibitors of Carboxylesterase Notum with Nanomolar Activity” (J Med Chem, 2022).
Values after ≈ are worked out from the molar mass of the structure shown. Values joined by “and” are separate entries in the source; they are usually repeats but may differ in a detail not shown here. Equal entries are not always repeated.

Experiments:
[1] = biological target: T1, Palmitoleoyl-protein carboxylesterase NOTUM (Homo sapiens, UniProt Q6P988, C330S); test: Inhibition of human Notum (81 to 451 Cys330Ser) using OPTS as substrate incubated for 40 mins by fluorescence based assay
HEK-293T [2] = test: Cytotoxicity against HEK293T cells expressing TCF-LEF assessed as adverse effects on cell health by Cell Titre Glo assay; assay type: toxicity, cell-based; settings: human
[3] = biological target: T1, Palmitoleoyl-protein carboxylesterase NOTUM; test: Inhibition of Notum (81 to 451 Cys330Ser) in HEK293T cells expressing TCF-LEF assessed as activation of Wnt signaling using WNT3A as substrate incubated for […] by Steady-Glo luciferase assay; assay type: cell-based
HEK-293T [4] = test: Cytotoxicity against HEK293T cells expressing TCF-LEF assessed as effect on total cell number by GFP based assay; assay type: toxicity; settings: human
[5] = Half life in C57BL/6J mouse at 0.4 mg/kg, iv measured at 0.08 to 24 hrs by LC-MS/MS analysis; assay type: ADME, organism-based; settings: in vivo, time 0.08-24 hrs
[6] = Drug concentration in C57BL/6J mouse brain at 0.4 mg/kg, iv measured at 4 hrs by LC-MS/MS analysis; assay type: ADME, organism-based; settings: read-out: Drug uptake
[7] = AUC (infinity) in C57BL/6J mouse at 0.4 mg/kg, iv measured at 0.08 to 24 hrs by LC-MS/MS analysis; assay type: ADME, organism-based; design: route intravenous, time upper 24 hrs, time lower 0.08 hrs, dose 0.4 mg/kg; settings: in vivo
[8] = AUC (all) in C57BL/6J mouse at 0.4 mg/kg, iv measured at 0.08 to 24 hrs by LC-MS/MS analysis; assay type: ADME, organism-based; design: route intravenous, time 0.08-24 hrs, dose 0.4 mg/kg; settings: in vivo
[9] = Clearance in C57BL/6J mouse at 0.4 mg/kg, iv measured at 0.08 to 24 hrs by LC-MS/MS analysis; assay type: ADME, organism-based; settings: in vivo, time 0.08-24 hrs
[10] = Volume of distribution at steady state in C57BL/6J mouse at 0.4 mg/kg, iv measured at 0.08 to 24 hrs by LC-MS/MS analysis; assay type: ADME, organism-based; settings: in vivo, time 0.08-24 hrs, read-out: Vdss
[11] = C0 in C57BL/6J mouse at 0.4 mg/kg, iv measured at 0.08 to 24 hrs by LC-MS/MS analysis; assay type: ADME, organism-based; settings: in vivo, time 0.08-24 hrs
[12] = Drug concentration in C57BL/6J mouse brain at 0.4 mg/kg, iv measured at 1 hr by LC-MS/MS analysis; assay type: ADME, organism-based; settings: read-out: Drug uptake
[13] = Intrinsic clearance in mouse liver microsome at 1 uM incubated upto 60 mins in presence of NADPH by LC-MS/MS analysis; assay type: ADME; settings: liver microsomes, read-out: CLH
[14] = Apparent permeability from apical to basolateral side in dog MDCKII-MDR1 cells at 10 uM incubated upto 120 mins by LC-MS/MS analysis; assay type: ADME, cell-based, Canis lupus familiaris; settings: MDCK-MDR1
[15] = Aqueous solubility of the compound at pH 7.4 in pION buffer at 500uM incubated for 18 hrs by spectrophotometry analysis; assay type: physicochemical
[16] = Acidic dissociation constant, pKa of the compound at pH 7.4; assay type: physicochemical
[17] = Apparent permeability from basolateral to apical side in dog MDCKII-MDR1 cells at 10 uM incubated upto 120 mins by LC-MS/MS analysis; assay type: ADME, cell-based, Canis lupus familiaris; settings: MDCK-MDR1
[18] = Plasma protein binding in CD-1 mouse at 2 uM by Equilibrium dialysis method; assay type: ADME, cell-free; settings: read-out: PPB (converted)
[19] = Plasma protein binding in CD-1 mouse assessed as unbound fraction at 2 uM by Equilibrium dialysis method; assay type: ADME, cell-free
[20] = Stability in mouse liver microsome assessed as half life at 1 uM incubated upto 60 mins in presence of NADPH by LC-MS/MS analysis; assay type: ADME; settings: liver microsomes
[21] = Apparent permeability in MDCKII-MDR1 cells assessed as compound recovery at 10 uM incubated upto 120 mins by LC-MS/MS analysis; assay type: ADME, cell-based, Canis lupus familiaris; settings: dog, MDCK-MDR1, read-out: Activity

Structure (SMILES)	IC50 [1]	EC50 [3] [nM]	other results
COc1ccc(/C=C2/N=C(c3cccc(Cl)c3Cl)OC2=O)c(OC)c1	> 10000 nM		
Cc1ccccc1COc1nn2c(=O)c(C)nnc2s1	320 nM and 1600 nM		
Cc1cccc(Sc2ccc3n[nH]c(=O)n3n2)n1	650 nM	> 10000	
Cc1ccc(N(C)c2ccc3n[nH]c(=O)n3n2)cc1	990 nM		
Cc1ccc(Oc2ccc3n[nH]c(=O)n3n2)cc1	3100 nM		
O=c1[nH]nc2ccc(Sc3ncccn3)nn12	> 10000 nM		
Cc1ccnc(Sc2ccc3n[nH]c(=O)n3n2)c1	2700 nM		
O=C1OC(c2cccc3ccccc23)=N/C1=C/c1ccco1	100 nM		
O=c1[nH]nc2ccc(Sc3ccccc3Cl)nn12	30 nM	720	
Cc1ccc(Cc2ccc3n[nH]c(=O)n3n2)cc1	240 nM		
Cc1ccccc1Sc1ccc2n[nH]c(=O)n2n1	50 nM	300	
COC(=O)CCC(=O)N1CCc2ccccc21	90 nM		
Cc1ccc(C2=N/C(=C/c3ccccc3)C(=O)O2)cc1C	200 nM		
O=c1[nH]nc2ccc(Sc3ccccc3C(F)(F)F)nn12	89 nM	930	
Cc1ccc(Sc2ccc3nn(C)c(=O)n3n2)cc1	> 10000 nM		
Cc1ccc(Nc2ccc3n[nH]c(=O)n3n2)cc1	690 nM		

Structure (SMILES)	IC50 [1]	EC50 [3] [nM]	other results
Cc1ccc(C2=N/C(=C/c3cccs3)C(=O)O2)cc1C	24 nM		
O=C1OC(c2ccc(Cl)cc2Cl)=N/C1=C/c1ccco1	48 nM		
Cc1ccc(S(=O)(=O)c2ccc3n[nH]c(=O)n3n2)cc1	> 10000 nM		
O=c1[nH]nc2ccc(Sc3cccc(Cl)c3Cl)nn12	13 nM	150	
O=C1OC(c2ccc(Cl)cc2Cl)=N/C1=C\c1ccco1	14 nM		
Cc1ccc(/C=C2\N=C(c3ccc(C)c(C)c3)OC2=O)o1	17 nM		microsomal CLint at 1 µM [13]: 1.9 µL/min/mg; half-life at 1 µM [20]: 360 min; solubility at 18 h, 500 µM [15]: 0.31 µg/mL (≈ 1.1 µM); recovery at 2 h, 10 µM [21]: < 25%
O=c1[nH]nc2ccc(Sc3cccc(C(F)(F)F)n3)nn12	410 nM	> 10000	
Cc1ccc(Sc2ccc3n[nH]c(=O)n3n2)nc1	3600 nM		
Cc1ccc(Sc2cc(C)c3n[nH]c(=O)n3n2)cc1	70 nM		
O=c1[nH]nc2ccc(Sc3ccncn3)nn12	> 10000 nM		
Cc1ccc([S+]([O-])c2ccc3n[nH]c(=O)n3n2)cc1 (stereo unspecified)	> 10000 nM		
Cc1ccc(/C=C2/N=C(c3ccc(C)c(C)c3)OC2=O)o1	8.5 nM		
Cc1ccc(/C=C2/N=C(c3cccc(Cl)c3Cl)OC2=O)o1	22 nM		
Cc1ccc(Sc2nn3c(=O)[nH]nc3c(C)c2C)cc1	> 10000 nM		
O=C1OC(c2cccc(Cl)c2Cl)=N/C1=C/c1cccs1	54 nM		
O=C1OC(c2cccc(Cl)c2Cl)=N/C1=C/c1ccco1	12 nM		

Second part, led by results:

IC50 [1]	EC50 [3] [nM]	Structure (SMILES)	other results
6 nM	88	O=c1[nH]nc2ccc(Sc3cccc(Cl)c3)nn12	Activity (HEK-293T [2]): Non-Toxic; Activity (HEK-293T [4]): Non-Toxic; half-life [5]: 18 min; concentration at 4 h [6]: < 5 ng/mL; AUC(0-inf) [7]: 300 ng·h/mL; AUC [8]: 300 ng·h/mL; clearance [9]: 22.2 mL/min/kg; Vd [10]: 0.3 L/kg; C0 [11]: 1750 ng/mL; concentration at 1 h [12]: < 5 ng/mL
120 nM	1100	O=c1[nH]nc2ccc(Sc3ccc(F)c(F)c3)nn12	
28 nM	300	O=c1[nH]nc2ccc(Sc3ccc(C(F)(F)F)cc3)nn12	
20 nM	150	CCOc1cccc(Sc2ccc3n[nH]c(=O)n3n2)c1	
30 nM	260	O=c1[nH]nc2ccc(Sc3cccc(F)c3)nn12	
94 nM	540	O=c1[nH]nc2ccc(Sc3ccc(F)cc3)nn12	
5 nM	110	O=c1[nH]nc2ccc(Sc3ccc(Cl)c(Cl)c3)nn12	Activity (HEK-293T [2]): Non-Toxic; Activity (HEK-293T [4]): Non-Toxic; half-life [5]: 42 min; concentration at 4 h [6]: < 5 ng/mL; AUC(0-inf) [7]: 370 ng·h/mL; AUC [8]: 360 ng·h/mL; clearance [9]: 17.8 mL/min/kg; Vd [10]: 0.7 L/kg; C0 [11]: 1580 ng/mL; concentration at 1 h [12]: < 5 ng/mL
150 nM		O=c1[nH]nc2ccc(Sc3ccccc3)nn12	
27 nM	86	Cc1ccc(Sc2ccc3n[nH]c(=O)n3n2)cc1	microsomal CLint at 1 µM [13]: 21 µL/min/mg; Papp A→B at 2 h, 10 µM [14]: 52 ×10⁻⁶ cm/s; Activity (HEK-293T [2]): Non-Toxic; solubility at 18 h, 500 µM [15]: 32 µg/mL and 120 µM; Activity (HEK-293T [4]): Non-Toxic; half-life [5]: 36 min; concentration at 4 h [6]: < 5 ng/mL; AUC(0-inf) [7]: 2350 ng·h/mL; AUC [8]: 2330 ng·h/mL; pKa [16]: 7.9; clearance [9]: 2.8 mL/min/kg; Vd [10]: 0.1 L/kg; Papp B→A at 2 h, 10 µM [17]: 43 ×10⁻⁶ cm/s; fraction unbound at 2 µM [18]: 0.012; C0 [11]: 2620 ng/mL; concentration at 1 h [12]: < 5 ng/mL; fraction unbound at 2 µM [19]: 0.011
27 nM	300	Cc1ccc(Sc2ccc3n[nH]c(=O)n3n2)c(C)c1	
7 nM	130	Cc1ccc(Sc2ccc3n[nH]c(=O)n3n2)cc1C	
87 nM	1100	O=c1[nH]nc2ccc(Sc3ccccc3F)nn12	
25 nM	260	CC(C)Oc1cccc(Sc2ccc3n[nH]c(=O)n3n2)c1	
63 nM		O=c1[nH]nc2ccc(Sc3cccc(F)c3F)nn12	
4 nM	34	O=c1[nH]nc2ccc(Sc3cccc(OC(F)(F)F)c3)nn12	Activity (HEK-293T [2]): Non-Toxic; Activity (HEK-293T [4]): Non-Toxic; half-life [5]: 6 min; concentration at 4 h [6]: < 5 ng/mL; AUC(0-inf) [7]: 270 ng·h/mL; AUC [8]: 270 ng·h/mL; clearance [9]: 24.8 mL/min/kg; Vd [10]: 0.2 L/kg; C0 [11]: 1900 ng/mL; concentration at 1 h [12]: < 5 ng/mL
24 nM	380	CSc1cccc(Sc2ccc3n[nH]c(=O)n3n2)c1	
17 nM	190	O=c1[nH]nc2ccc(Sc3cccc(C(F)(F)F)c3)nn12	
15 nM	140	COc1cccc(Sc2ccc3n[nH]c(=O)n3n2)c1	
21 nM	310	O=c1[nH]nc2ccc(Sc3ccc(Cl)cc3)nn12	
14 nM		Cc1cccc(Sc2ccc3n[nH]c(=O)n3n2)c1C	
47 nM		Cc1cc(C)cc(Sc2ccc3n[nH]c(=O)n3n2)c1	
9 nM	240	Cc1cccc(Sc2ccc3n[nH]c(=O)n3n2)c1	
20 nM	380	O=c1[nH]nc2ccc(Sc3ccc(Cl)cc3Cl)nn12	
